According to US10077243B2, “Compounds for treating disorders mediated by metabotropic glutamate receptor 5, and methods of use thereof” (Sunovion Pharmaceuticals Inc., priority 2009, dated 2018):

Target: T1, human mGluR5 (Homo sapiens, UniProt P41594)
T1 construct: expressed in transfected cells; host or cells: HEK293 cells stably expressing rat GLAST (EAAT1), stably transfected with pcDNAzeo3.1 carrying synthetic human mGluR5 DNA; zeocin-selected single clones
Experiment: In vitro cell-based FLIPR calcium assay for positive modulation of the activation of mGluR5 by glutamate (PAM EC50)
Details: HEK293/GLAST cells expressing recombinant human mGluR5; FLIPR calcium signal; glutamate added at its EC20; read-out: mGluR5 PAM EC50
Procedure, shortened: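 HEK293/GLAST cells stably expressing mGluR5 were loaded with calcium-sensitive dye (25 °C, 45–60 min) in HBSS/20 mM HEPES. Test compounds were assayed in buffer containing glutamate at that day's EC20, with FLIPR fluorescence recorded. Controls contained 0.3% DMSO without compound.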

T1 sequence (P41594 21-1212): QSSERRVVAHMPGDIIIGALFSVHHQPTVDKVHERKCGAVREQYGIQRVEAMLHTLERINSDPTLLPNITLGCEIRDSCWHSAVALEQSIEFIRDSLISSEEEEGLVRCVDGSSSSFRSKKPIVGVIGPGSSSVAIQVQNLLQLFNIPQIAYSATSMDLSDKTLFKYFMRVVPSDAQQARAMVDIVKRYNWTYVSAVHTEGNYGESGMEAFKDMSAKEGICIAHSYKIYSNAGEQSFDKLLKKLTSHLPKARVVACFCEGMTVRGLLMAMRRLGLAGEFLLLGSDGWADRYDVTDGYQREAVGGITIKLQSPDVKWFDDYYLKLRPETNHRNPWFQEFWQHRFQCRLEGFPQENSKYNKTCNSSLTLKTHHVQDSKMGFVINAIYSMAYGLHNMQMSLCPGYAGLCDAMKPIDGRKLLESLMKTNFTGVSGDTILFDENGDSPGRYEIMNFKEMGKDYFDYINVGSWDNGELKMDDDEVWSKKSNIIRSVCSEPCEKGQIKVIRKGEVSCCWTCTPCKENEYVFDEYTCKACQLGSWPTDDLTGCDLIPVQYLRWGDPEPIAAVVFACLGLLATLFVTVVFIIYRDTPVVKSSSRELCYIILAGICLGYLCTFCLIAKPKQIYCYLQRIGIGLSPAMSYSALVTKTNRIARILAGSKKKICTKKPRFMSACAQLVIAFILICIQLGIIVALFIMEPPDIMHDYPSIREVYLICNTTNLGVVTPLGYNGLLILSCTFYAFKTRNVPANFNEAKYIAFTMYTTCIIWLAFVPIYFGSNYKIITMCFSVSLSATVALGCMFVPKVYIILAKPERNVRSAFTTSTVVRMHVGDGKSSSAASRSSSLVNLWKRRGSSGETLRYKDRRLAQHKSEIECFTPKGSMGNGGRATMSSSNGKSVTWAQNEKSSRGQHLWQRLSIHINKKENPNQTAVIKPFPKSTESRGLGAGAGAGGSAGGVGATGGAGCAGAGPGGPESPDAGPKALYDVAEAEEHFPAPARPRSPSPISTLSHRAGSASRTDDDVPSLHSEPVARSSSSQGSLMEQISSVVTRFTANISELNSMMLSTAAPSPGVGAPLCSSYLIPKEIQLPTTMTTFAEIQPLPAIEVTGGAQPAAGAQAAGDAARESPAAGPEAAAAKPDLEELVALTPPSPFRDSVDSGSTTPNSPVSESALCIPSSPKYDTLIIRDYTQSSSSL

Row | Structure (SMILES) | EC50 [nM]
1 | COCCN1CCn2c(nc3cc(C#Cc4cccc(F)c4)ccc3c2=O)C1 [Example 5.9, 9-((3-fluorophenyl)ethynyl)-2-(2-methoxyethyl)-3,4-dihydro-1H-pyrazino[2,1-b]quinazolin-6(2H)-one] | 100 to 300
2 | O=c1c2ccc(C#Cc3ccc(F)cc3)cc2ncn1CC1CCCO1 (single isomer, unassigned) [1.15/1.16 slower moving enantiomer (fraction 2), 7-((4-fluorophenyl)ethynyl)-3-((tetrahydrofuran-2-yl)methyl)quinazolin-4(3H)-one] | 100 to 300
3 | Cn1cc(C#Cc2ccc3c(=O)n4c(nc3c2)CCC2(CC4)OCCO2)cn1 [Example 7.69] | 100 to 300
4 | Cc1cccc(C#Cc2ccc3c(=O)n4c(nc3c2)CCC2(CC4)OCCO2)c1 [Example 7.31] | 100 to 300
5 | O=c1c2ccc(C#Cc3ccc(F)cc3)cc2ncn1Cc1ccco1 [Example 1.14, 7-((4-fluorophenyl)ethynyl)-3-(furan-2-ylmethyl)quinazolin-4(3H)-one] | 300 to 1000
6 | CCOCCc1cnc2cc(C#Cc3cccc(F)c3)ccn2c1=O [Example 13.13, 3-(2-ethoxyethyl)-8-((3-fluorophenyl)ethynyl)-4H-pyrido[1,2-a]pyrimidin-4-one] | 30 to 100
7 | CC1CCn2c(nc3cc(C#Cc4ccccn4)ccc3c2=O)C1 (stereo not shown) [Example 4.11, 7-methyl-3-(pyridin-2-ylethynyl)-8,9-dihydro-6H-pyrido[2,1-b]quinazolin-11(7H)-one] | 30 to 100

Continued, values first:

Row | EC50 [nM] | Structure (SMILES)
8 | < 10 | O=c1c2c(nc3cc(C#Cc4cccnc4)ccn13)CCCCC2 [Example 16.4, 3-(pyridin-3-ylethynyl)-7,8,9,10-tetrahydrocyclohepta[d]pyrido[1,2-a]pyrimidin-11(6H)-one]
9 | 30 to 100 | O=c1c2ccc(C#Cc3ccccn3)cc2nc2n1CC1CCCN1C2 (stereo not shown) [Example 5.22, 8-(pyridin-2-ylethynyl)-2,3,13,13a-tetrahydro-1H-pyrrolo[1′,2′:4,5]pyrazino[2,1-b]quinazolin-11(5H)-one]
10 | 10 to 30 | N#CCN1CCc2nc3cc(C#Cc4cccc(F)c4)ccc3c(=O)n2CC1 [Example 8.14, 2-(8-((3-fluorophenyl)ethynyl)-11-oxo-1,2,4,5-tetrahyrdro-[1,4]diazepino[7,1-b]quinazolin-3(11H)-yl)acetonitrile]
11 | < 10 | COCCc1nc2cc(C#Cc3cccc(F)c3)ccc2c(=O)n1C [Example 2.1, 7-((3-fluorophenyl)ethynyl)-2-(2-methoxyethyl)-3-methylquinazolin-4(3H)-one]
12 | < 10 | CC1(F)CCc2nc3cc(C#Cc4ccccn4)ccc3c(=O)n2CC1 (single isomer, unassigned) [Example 6.48a/6.48b faster moving enantiomer (fraction 1), 8-fluoro-8-methyl-3-(pyridin-2-ylethynyl)-7,8,9,10-tetrahydroazepino[2,1-b]quinazolin-12(6H)-one]
13 | 30 to 100 | CC1(C)Cc2nc3cc(C#Cc4ccccn4)cnc3c(=O)n2C1 [Example 11.10, 7,7-dimethyl-3-(pyridin-2-ylethynyl)-7,8-dihydropyrido[3,2-d]pyrrolo[1,2-a]pyrimidin-10(6H)-one]
14 | < 10 | C/C=C1\CCCCCn2c1nc1cc(C(=O)Nc3ncc(C)s3)ccc1c2=O [Example 25.1, (E)-6-ethylidene-N-(5-methylthiazol-2-yl)-13-oxo-7,8,9,10,11,13-hexahydro-6H-azocino[2,1-b]quinazoline-3-carboxamide]
15 | 30 to 100 | C#CCN1CCc2nc3cc(C#Cc4ccccn4)ccc3c(=O)n2CC1 [Example 8.22, 3-(prop-2-yn-1-yl)-8-(pyridin-2-ylethynyl)-2,3,4,5-tetrahydro-[1,4]diazepino[7,1-b]quinazolin-11(1H)-one]
16 | 10 to 30 | CC1CCc2nc3cc(C#Cc4ccccn4)cnc3c(=O)n2CC1 (stereo not shown) [Example 11.9, 8-methyl-3-(pyridin-2-ylethynyl)-7,8,9,10-tetrahydropyrido[3′,2′:4,5]pyrimido[1,2-a]azepin-12(6H)-one]
